Measurements as given in patent US20250177359A1, “COMPOUNDS FOR USE IN THE TREATMENT OF CANCER AND INFLAMMATORY CONDITIONS” (priority 2022, published 2025).
Where two headings read alike, the source gives them in different places.

Molecular target: T1, TNKS2 (Homo sapiens, UniProt Q9H2K2)
T1 sequence (Q9H2K2 1-1166): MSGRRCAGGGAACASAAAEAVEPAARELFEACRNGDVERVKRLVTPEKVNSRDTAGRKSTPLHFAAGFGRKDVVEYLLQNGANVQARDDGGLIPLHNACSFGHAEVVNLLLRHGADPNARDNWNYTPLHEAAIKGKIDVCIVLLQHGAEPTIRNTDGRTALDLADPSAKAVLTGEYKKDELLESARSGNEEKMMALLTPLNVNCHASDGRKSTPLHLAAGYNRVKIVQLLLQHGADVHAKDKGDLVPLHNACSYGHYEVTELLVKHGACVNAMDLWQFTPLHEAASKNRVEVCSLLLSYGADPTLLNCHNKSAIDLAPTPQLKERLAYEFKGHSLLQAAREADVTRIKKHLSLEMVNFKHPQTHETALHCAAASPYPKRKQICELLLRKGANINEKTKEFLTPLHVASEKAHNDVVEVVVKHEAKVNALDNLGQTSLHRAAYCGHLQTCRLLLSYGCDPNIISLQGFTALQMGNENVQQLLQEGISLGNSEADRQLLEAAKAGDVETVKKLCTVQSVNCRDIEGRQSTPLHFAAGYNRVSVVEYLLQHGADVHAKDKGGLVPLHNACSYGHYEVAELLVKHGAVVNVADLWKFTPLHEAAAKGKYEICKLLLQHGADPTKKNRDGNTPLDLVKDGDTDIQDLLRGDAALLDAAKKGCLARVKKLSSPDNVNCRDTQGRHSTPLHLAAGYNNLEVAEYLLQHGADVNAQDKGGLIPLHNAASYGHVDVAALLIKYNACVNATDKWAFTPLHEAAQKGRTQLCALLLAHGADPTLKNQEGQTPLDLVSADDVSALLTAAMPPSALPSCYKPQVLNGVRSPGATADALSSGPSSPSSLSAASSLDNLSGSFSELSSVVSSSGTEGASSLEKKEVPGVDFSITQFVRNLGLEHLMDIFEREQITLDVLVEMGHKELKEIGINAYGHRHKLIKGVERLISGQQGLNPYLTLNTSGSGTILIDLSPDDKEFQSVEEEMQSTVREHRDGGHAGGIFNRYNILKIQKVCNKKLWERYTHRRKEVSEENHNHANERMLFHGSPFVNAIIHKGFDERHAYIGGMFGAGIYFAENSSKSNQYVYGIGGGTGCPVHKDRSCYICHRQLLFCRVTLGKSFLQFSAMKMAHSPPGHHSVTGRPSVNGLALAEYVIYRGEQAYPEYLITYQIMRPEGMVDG
Assay: biochemical
Experimental: All starting materials, reagents, and solvents were purchased from common commercial suppliers and were used as such without further purification. […] Organic solutions were dried over anhydrous Na2SO4 and concentrated with rotary evaporator at low pressure. All the reactions were routinely checked by thin-layer chromatography (TLC) on silica gel 60F254 (Merck) and visualized by using UV and iodine. Flash chromatography separations were carried out on Merck silica gel 60 (mesh 230-400) or by using automated Buchi Reveleris X2-UV with column FP Ecoflex Si 12 g. Yields were of purified products and were not optimized. ^1HNMR spectra were recorded at 400 MHz (Bruker Avance DRX-400), while ^13CNMR spectra were recorded at 101 MHz (Bruker Avance DRX-400). Chemical shifts are given in ppm (δ) relative to TMS. […] Mating constant (J) are reported in Hz. The purity of the tested compounds was evaluated by HPLC analysis using Jasco LC-4000 instrument equipped with a UV-Visible Diode Array Jasco-MD4015 (Jasco Corporation, Tokyo, Japan), and XTerra MS C18 column, 5 μm×4.6 mm×150 mm (Waters Corporation, Massachusetts, USA). Chromatograms were analyzed by ChromNAV2.0 Chromatography Data System software. […] The peak retention time (ret. time) is given in minutes. […] 1-Isobutoxy-4-methoxy-2-nitrobenzene (113). Isobutyl alcohol (0.6 mL, 6.43 mmol) was added, under nitrogen atmosphere at 0° C., to a suspension of NaH (0.26 g, 6.43 mmol) in dry DMF. After 15 minutes, 1-fluoro-4-methoxy-2-nitrobenzene 112 (1 g, 5.84 mmol) was also added and the reaction mixture was stirred at 80° C. for 4 h. […] (2-Isobutoxy-5-methoxyphenyl)amine (114). Zn (1.57 g, 24 mmol) and NH4C1 (2.45 g, 40 mmol) were added to a solution of 113 (0.46 g, 2 mmol) in acetone/H2O (50 mL, ratio 5:1). The reaction mixture was stirred at 60° C. for 3 h and, then, it was filtered over celite. […] N-(2,5-diethoxyphenyl)thiourea (55). […] N-(2-isobutoxy-5-methoxyphenyl)thiourea (115). […] A solution of Br2 (0.2 mL, 3.3 mmol) in CHCl3 (5 mL) was slowly added to a suspension of 45 (0.6 g, 3.3 mmol) in CHCl3 (13 mL), at 0° C. The reaction mixture was stirred at r.t. for 4 h and, then, a 10% solution of Na2SO3 in water was added to the mixture. […] 4,7-Diethoxy-1,3-benzothiazol-2-amine (66). […] 4-Isobutoxy-7-methoxy-1,3-benzothiazol-2-amine (116). […] Hydrazine hydrate (0.23 mL, 4.77 mmol) and CH3COOH (0.12 mL, 2.1 mmol) were added to a suspension of 56 (0.29 g, 1.59 mmol) in ethylene glycol (8 mL), and the reaction mixture was stirred for 24 h at 125° C. […] 6-Ethyl-2-hydrazino-1,3-benzothiazole (69). […] 6-Ispropyl-2-hydrazino-1,3-benzothiazole (70). […] 2-Hydrazino-4,7-dimethoxy-1,3-benzothiazole (73). […] 2-Hydrazino-5,7-dimethoxy-1,3-benzothiazole (75). […] 2-Hydrazino-4,7-Diethoxy-1,3-benzothiazole (77). […] 2-Hydrazino-5-methyl[1,3]thiazolo[5,4-b]pyridine (100). […] A solution of 67 (0.13 g, 0.65 mmol) in formic acid (5 mL) was refluxed for 10 h. The reaction mixture was then poured into ice/water and the pH was neutralized using a saturated solution of NaHCO3.

[1] = read-out: TNKS2 IC50, NAD+ consumption assay, > less than 50% inhibition at highest concentration, >> no inhibition

SMILES | IC50 [1] [µM] | also measured
Oc1ccc2c(c1)sc1nncn12 [Compound 10] | – | IC50 (read-out: TNKS2 IC50, NAD+ consumption assay): 0.37 µM
Cc1ccc2c(c1)sc1nnc(N)n12 [Compound 22, 7-Methyl[1,2,4]triazolo[3,4-b][1,3]benzothiazol-3-amine] | 5.7 | –
COc1ccc(OC)c2c1sc1nnc(N)n12 [Compound 28, 5,8-Dimethoxy[1,2,4]triazolo[3,4-b][1,3]benzothiazol-3-amine] | 10 | –
Nc1nnc2sc3cc(O)ccc3n12 [Compound 109, 3-Amino[1,2,4]triazolo[3,4-b][1,3]benzothiazol-7-ol] | – | IC50: ~0.2 µM
